From US20250302802A1, “METHODS AND COMPOSITIONS” (VRG 145 ZRT., priority 2024, published 2025) come the findings set out here.

Series [1] has as its system central nervous system (rotarod performance). Put plainly: Accelerating rotarod test. The format is in vivo, rat. Particulars: any of the three dose levels: 0.6, 2, 6 mg/kg solo; 0.3+0.3, 1+1, 3+3 mg/kg combination; per os; 45 and 90 min post-dose. A general note: The rotarod test checks motor coordination on a turning rod.
Description: Animals were acclimatized to the laboratory conditions for at least 5 days before the first experiment and kept under artificial lighting between 7:00 and 19:00 in a controlled ambient temperature of 22±2° C. One hundred animals were assigned to ten treatment groups, which were tested in parallel with appropriate randomization, time shifts and cohorts needed to exploit the capacity of test apparatus. The test groups comprised nine test substance treated groups, of three treatment types (lisinopril, memantine and their 1:1 combination), each administered at three dose levels, and a vehicle control group for comparison. Corresponding dose levels of the combination were half of the doses of the solo drug treatments. Thus, the tested dose levels were 0.6, 2 and 6 mg/kg for the solo treatments and 0.3+0.3, 1+1 and 3+3 mg/kg for the combination. The test substances were dissolved in physiological saline for dosing volume of 5 mg/kg. The test substances were administered per os by gavage. […] One week later, the same animals received the same treatment and were tested in the rotarod test.
The rotarod test detects neurological deficits. Rats were placed on a rod (diameter: 7 cm) rotating at a constant speed of 4 revolutions per minute for a 2-minute period. When they fell off during this period they were replaced on the rod. […] The latency to fall off was recorded (cut-off: 3 minutes). […]
The test system of series [2] is face allodynia in the infraorbital nerve ligation model. Kind of series: Partial infraorbital nerve ligation model, reversal of face allodynia (head withdrawal threshold, von Frey). It counts as in vivo. Particulars: Rattus norvegicus, po; per os; mean (S.E.M.); individual maximum post-dose reversals; combination in terms of doses of the individual components; read-out: ED50 (effective dose causing 50% reversal of the allodynia). As for the experimental part: Infraorbital nerve ligation models, either by partial ligation or by the loose ligation of the whole nerve (chronic constriction injury) have been used as models of trigeminal neuralgia or trigeminal neuropathic pain. […] Male Sprague-Dawley rats weighing 200-220 g at surgery and 290-390 g at the time of testing were used. As primary read-outs of tactile pain sensitivity of the face, head withdrawal thresholds were measured by repeated stimulations using von Frey filaments (Touch Test Sensory Probes, Stoelting®). Before surgery, the rats were habituated to the testing for two weeks, first by handling (for 2 days) and then by repeated touching with von Frey filaments and finally determination of 50% head withdrawal thresholds (HWT) on three consecutive days. Rats with HWT<10 g at 2 out of 3 pre-surgery tests were not enrolled in the study. Sensitivity of the orofacial region was tested using calibrated von Frey filaments, with a series of filaments with bending force ranging between 0.4-14.8 g. […] HWTs were determined using Chaplan's up-down method, starting with the filament of 2 g bending force. […] The evaluated post-dose data (HWTs in gram) were converted to percent reversals, taking the simultaneous post-dose average HWT value of the vehicle treated group as 0% and the pre-surgery average value of animals involved in the test substance-treated group as 100%.

Series [3] can be described thus: Pharmacokinetic interaction study of lisinopril and memantine. The format is in vivo. Particulars: rat, serum. How it is done:
The statistical significance of differences between corresponding solo treatment and combination treatment mean values was evaluated by Student's unpaired t-test. The areas under the curve between TO (time of dosing) and last tested timepoint (135 min) were also calculated to assess the drug exposures in each animal (Table 2).

In series [4] the test system is periorbital allodynia in the dural inflammation model. Put plainly: Dural inflammation (inflammatory soup) model, reversal of periorbital allodynia (periorbital threshold, von Frey). The settings on record: 90 min post-dose; for reversal of allodynia at the medium dose level: solo 0.6 mg/kg per os. It counts as in vivo, rat.
Excerpt: Male Sprague-Dawley rats weighing approximately 250 g at surgery were used. Rats were habituated and trained for 1-2 weeks and then fitted with a stainless-steel cannula (22GA, Plastics One) under isoflurane anesthesia. […] Special attention was given not to disturb the dura. A custom flange guide cannula (22GA, Plastics One) was inserted into the hole (cut 0.5 mm below pedestal). The cannula was fixed to the bone with small screws and dental cement. A dummy that extended just past the end of the guide cannula was inserted to prevent scar tissue from forming, and thus clogging the cannula. Animals were allowed 1-2 weeks of recovery before testing and infusions began. Periorbital thresholds (POT) were monitored 7-10 days after surgery to ensure the thresholds generally returned to pre-surgery baselines.
While under isoflurane anesthesia, the infusion procedure proceeded over 5 consecutive days in which a Hamilton syringe attached to an infusion pump was used to deliver 15 μL of inflammatory soup over 8 minutes, at a rate of 1.759 μL/min. The Hamilton syringe was connected to tubing with a custom cannula injector at the tip; the syringe, tubing line, and injector were filled to the tip with inflammatory soup solution. The custom cannula injector was inserted into the flange cannula and the infusion started. The inflammatory soup contained 2 mM histamine, 2 mM bradykinin, 2 mM serotonin, and 0.2 mM prostaglandin E2 dissolved in saline.
Only animals that developed sustained hypersensitivity and satisfied the periorbital sensitivity criteria (POT<2.5 g) were enrolled into the study and each week into test groups.
Sensory testing was performed on testing days using von Frey filaments (Stoelting®, Wood Dale, Illinois) with reproducible calibrated buckling forces varying from 0.4-10 g utilizing Chaplan's up-down method. The specific fibers utilized were 3.61 (0.4 g), 3.84 (0.6 g), 4.08 (1 g), 4.31 (2 g), 4.56 (4 g), 4.74 (6 g), 4.93 (8 g), and 5.07 (10 g); 4.31 (2 g) was the starting fiber. Allodynia was tested by gently restraining the rat in the investigator's hand by holding the rat in one hand with fingers just behind the left forepaw, keeping the animal pressed against the investigator's chest. Fibers were applied by perpendicularly touching the rostral portion of the periorbital region (below the lower eye margin close to the rostral corner) causing slight buckling of the filament for approximately 5 seconds. Based on the response pattern and the force of the final filament, the withdrawal threshold (g) was calculated.
On testing days, a blinded investigator tested periorbital sensitivity pre-dose, 45 min, 90 min, and 135 min after drug administration. […]
Another series concerns cardiovascular system. Kind of series: Cardiovascular telemetry in awake unrestrained normotensive rats. It counts as in vivo, rat. Particulars: for Heart rate; difference from Vehicle treated, Mean / Mean arterial blood pressure; difference from Vehicle treated, Mean: oral gavage, post-dose period of 3-6 hours. How it is done:
The cardiovascular parameters of normotensive rats instrumented with telemetric devices were investigated to determine whether the observed in vivo pharmacodynamic synergy exists also for cardinal side effects of the drug components of the combination. As lisinopril is an antihypertensive drug, its vasodilator and antihypertensive effects or other related cardiovascular effects may be cardinal side effects. Therefore, a cardiovascular telemetry study was performed with lisinopril, memantine and their combination in rats. Male Sprague-Dawley rats weighing 250-300 g at the start of the investigations were used. The animals were housed individually in artificially lightened chambers with a 12 h light and dark cycle (lights on at 07:00) and an ambient temperature of 20-22° C. Radiotelemetric units comprising transmitters with built in sensors (Data Sciences International, USA, Type: HD-S11) were surgically implanted into rats under sodium pentobarbital (50 mg/kg, i.p.) induced anesthesia. The rat abdomen was opened by a midline laparotomy. After visualizing the aorta, it was separated from the vena cava just caudal to the left dorsal muscular branch. A piece of 5-0 suture was placed between the vena cava and aorta so that the suture lied underneath the aorta. By this suture the aorta was temporarily occluded, and the catheter introduced into the vessel. After drying the aorta around the catheter entry site, a small amount of tissue adhesive was applied and 5-10 seconds later the suture was loosened. The bipolar ECG leads were tunneled subcutaneously into Lead II position and fixed with surgical sutures. Closure of the abdomen and skin was followed by 7 days recovery period. […] Drug tests were performed on 8 rats used repeatedly according to a 4-way crossover design, carried out in three sessions. In each session, all the 8 animals were treated and tested on 4 occasions with 3- or 4-days washout periods between treatments (i.e. Mondays and Thursdays in two weeks), so that on each occasion 4 pairs of rats were treated with 4 types of treatment (vehicle control, test substance A, test substance B and combination A+B), and during the 4 occasions all the animals were given all the 4 types of treatment according to a Latin-square 4-way crossover design. In the three consecutive 2-week-long sessions, three dose levels of test substances were tested in an escalating order. […] For evaluation and data reduction, pre-dose 10-min, post-dose 30-min segment averages were calculated and plotted (FIG. 5). […] None of the test substance treatments caused any apparent effect on the body temperature as compared to vehicle control data. The stress of handling and oral gavage administration caused a transient increase in both blood pressure and heart rate as indicated by changes in the vehicle treated data. However, after these transient changes, blood pressure and heart rate returned to the pre-dose level in the vehicle control group. […] For within session statistical analysis of differences from vehicle control, one-way ANOVA followed by Dunnett's test was used.

Series [5] has as its system central nervous system (horizontal locomotor activity). Put plainly: Locomotor activity test. The settings on record: 60-90 minutes post-dose. The format is in vivo, rat. An excerpt: Memantine is a neurological drug with neurological side effects at high doses, such as sedative or dissociative or psychotomimetic side effects in humans, and locomotion stimulating and motor coordination impairing effects in rodents. Therefore, as a further test to see if pharmacodynamic synergy exists also for cardinal side effects of the drug components of the combination two central nervous system side effect assessing pharmacodynamic interaction studies (locomotor activity and rotarod tests) were performed with lisinopril, memantine and their combination in rats. Male Sprague Dawley rats weighing 200-250 g at start of testing were used. Animals were acclimatized to the laboratory conditions for at least 5 days before the first experiment and kept under artificial lighting between 7:00 and 19:00 in a controlled ambient temperature of 22±2° C. One hundred animals were assigned to ten treatment groups, which were tested in parallel with appropriate randomization, time shifts and cohorts needed to exploit the capacity of test apparatus. […] Corresponding dose levels of the combination were half of the doses of the solo drug treatments. […] The test substances were dissolved in physiological saline for dosing volume of […]. The test substances were administered per os by gavage. First, the locomotor test was carried out. One week later, the same animals received the same treatment and were tested in the rotarod test. The locomotor activity test detects stimulant or sedative activity. The activity meter consisted of 16 covered Plexiglas cages (40×25×25 cm) contained within a darkened enclosure and connected to silent electronic counters. Each cage was equipped with four photocell assemblies (two at each end of the cage) 3 cm above the floor to measure the number of movements by each animal (one per cage) in the horizontal plane. The number of (horizontal) crossings by each animal (one per cage) from one pair of photocells to the other was recorded by computer in 10-minute intervals. […] The cumulated events in the period of 60-90 minutes post-dose were evaluated.

The mark [6] stands for this setting: Lisinopril 0.3 mg/kg, read-out: Concentration of Lisinopril, Mean.
[7] abbreviates: Lisinopril 1 mg/kg, read-out: Concentration of Lisinopril, Mean.
The mark [8] stands for this setting: dose 0.3 mg/kg (combination containing the same dose of lisinopril).
Where [9] appears, read: dose 1 mg/kg (combination containing the same dose of lisinopril).
Where [10] appears, read: dose 3 mg/kg (combination containing the same dose of lisinopril).
[11] abbreviates: Memantine 0.3 mg/kg, read-out: Concentration of Memantine, Mean.
Where [12] appears, read: Memantine 1 mg/kg, read-out: Concentration of Memantine, Mean.

Each structure is given as a SMILES string. Read-outs that look alike come from different tables or passages of the source.

As a reminder, the ED50 is the dose at which the effect has come halfway, by size or by number of responders. For `NCCCC[C@H](N[C@@H](CCc1ccccc1)C(=O)O)C(=O)N1CCC[C@H]1C(=O)O` [Lisinopril, (S)-1-[N2-(1-carboxy-3-phenylpropyl)-L-lysyl]-L-proline], the “effect on rotarod performance (latency to fall off)” value in series [1] is “neither lisinopril, nor memantine, nor their combination had a significant effect”. For the same molecule, the ED50 in series [2] was determined as 0.488 mg/kg. The concentration at 45 min in series [3] (setting [6]) was 5.75 ng/mL; in series [3] (setting [7]) it was 9.86 ng/mL. For the same molecule, the concentration at 90 min turned out to be 9.44 ng/mL in series [3] (setting [6]) and 43 ng/mL in series [3] (setting [7]). Also, the concentration at 135 min in series [3] (setting [6]) worked out at 14.2 ng/mL; in series [3] (setting [7]), 57 ng/mL. The AUC(0-t) is 16.7 ng·h/mL in series [3] (dose 0.3 mg/kg, read-out: Mean AUC (AUC0-135 min) of Lisinopril, Solo (converted)) and 61 ng·h/mL in series [3] (dose 1 mg/kg, read-out: Mean AUC (AUC0-135 min) of Lisinopril, Solo (converted)). Moreover, the “ED40 (effective dose causing 40% reversal of the allodynia)” value in series [4] (per os) is reported as 1.85 mg/kg. For the same molecule, the “reversal of allodynia at the medium dose level” value in series [4] is on record as “around 15%”. Further, the “suppression of the blood pressure” value in the series with cardiovascular system (almost dose-independently, 0.3-3 mg/kg) is recorded as “about 7 mmHg”. Moreover, the “Heart rate; difference from Vehicle treated, Mean” value with cardiovascular system (setting [8]) was 8.37 beats per min; in the series with cardiovascular system (setting [9]), 20.62 beats per min; in the series with cardiovascular system (setting [10]) it was 29.39 beats per min. Moreover, the “Mean arterial blood pressure; difference from Vehicle treated, Mean” value with cardiovascular system (setting [8]) is −7.05 mmHg; with cardiovascular system (setting [9]) it was −7.47 mmHg; in the series with cardiovascular system (setting [10]) it was −7.72 mmHg. Also, in series [5] (any of the three dose levels: 0.6, 2, 6 mg/kg solo, 0.3+0.3, 1+1, 3+3 mg/kg combination, per os), the “effect on the locomotor activity” value was “neither lisinopril nor the combination exerted a significant effect”.

In the case of `CC12CC3CC(C)(C1)CC(N)(C3)C2` [Memantine, 1-amino-3,5-dimethyladamantane], the “effect on rotarod performance (latency to fall off)” value in series [1] is “neither lisinopril, nor memantine, nor their combination had a significant effect”. Further, the 50% effective dose (ED50) in series [2] was determined as 0.478 mg/kg. For the same molecule, the concentration at 45 min in series [3] (setting [11]) came to 5.58 ng/mL; in series [3] (setting [12]), 11.4 ng/mL. For the same molecule, the concentration at 90 min is 8.46 ng/mL in series [3] (setting [11]) and 22.3 ng/mL in series [3] (setting [12]). In addition, the results for the concentration at 135 min in series [3] (setting [11]) and in series [3] (setting [12]) were 8.91 ng/mL and 24.2 ng/mL, respectively. Moreover, the AUC(0-t) is 13.9 ng·h/mL in series [3] (dose 0.3 mg/kg, read-out: Mean AUC (AUC0-135 min) of Memantine, Solo (converted)) and 34.4 ng·h/mL in series [3] (dose 1 mg/kg, read-out: Mean AUC (AUC0-135 min) of Memantine, Solo (converted)). Further, the “reversing effect on the allodynia (percent reversal)” value in series [4] (per os 0.2, 0.6 and 2 mg/kg) is reported as not above 15%. For the same molecule, in series [4], the “reversal of allodynia at the medium dose level” value is “around 15%”. For the same molecule, the “effect on hemodynamic parameters (blood pressure, heart rate)” value in the series with cardiovascular system (0.3, 1 and 3 mg/kg, combination compared with lisinopril) is reported as “no effect”. The results for the “Heart rate; difference from Vehicle treated, Mean” value with cardiovascular system (setting [8]), in the series with cardiovascular system (setting [9]) and in the series with cardiovascular system (setting [10]) were −2.87 beats per min, −8.51 beats per min and −3.03 beats per min, respectively. Also, the “Mean arterial blood pressure; difference from Vehicle treated, Mean” value in the series with cardiovascular system (setting [8]) is −1.39 mmHg; in the series with cardiovascular system (setting [9]) it was 0.11 mmHg; in the series on cardiovascular system (setting [10]), −0.13 mmHg. The “effect on the locomotor activity” value is given as “significant increase” in series [5] (highest dose level (6 mg/kg per os)); “not at the two lower dose levels” in series [5] (two lower dose levels (0.6 and 2 mg/kg per os)).
